Experiment: Pharmacokinetic analyses in mice (PO suspension, IV, SC)
Assay type: in vivo, mouse
Experimental: Female CD-1 mice as above were fasted for 2 h prior, and 4 h after dosing. […] […], 3 mice from each group were euthanized by CO2 inhalation, blood was collected by cardiac puncture into K2EDTA collection tubes, and protein was precipitated and analysed by LC/MS-MS for plasma concentrations of MBX-4132. Data were analysed using WinNonLin.
[…] At 0.083, 0.5, 1, 4, 8 and 24 h post dose, blood was collected from 3 mice/group by tail vein or facial bleed into K2EDTA collection tubes, and protein was precipitated and analysed by LC/MS-MS for plasma concentrations of MBX-4132. Sampling was performed serially, with each mouse contributing sample at all time points. Data were analysed using WinNonLin.

With `O=C(Nc1nnc(-c2ccc(F)cc2)o1)N1CCc2ccccc2C1` [MBX-4132] the “oral bioavailability (in words)” value (mice) was “highly orally bioavailable” and the “exposure in fasted vs fed mice (in words)” value (plasma at 1 and 4 h post dosing, formulation A) was “No significant variation in exposure”.

From article PMC7979765, “trans-Translation inhibitors bind to a novel site on the ribosome and clear Neisseria gonorrhoeae in vivo” (Nature Communications, 2021)
